Measurements as given in US10420840B2, “Anticancer therapeutic agents” (RLL, LLC, priority 2015, dated 2019).

Key:
PBMC = test: Cell viability, CellTiter Glo Assay, PBMC; format: cell-based; conditions: peripheral blood monocytes (proliferating normal cells), read-out: Effect of AOH39 on Cell Viability IC50
Procedure: (§1) The IC50's listed in Table 1 and in FIGS. 8 and 9 were determined by monitoring cell proliferation in the absence or presence of increasing concentrations of AOH39 using the Cell-Titer Glo Assay, (Promega Inc., Madison, Wis.) which monitors the energy status of the entire culture and the viability of the cell population. (https://www.promega.com/products/cell-health-and-metabolismicell-viability-assaysicelltiter_glo-luminescent-cell-viability-assay/). As the population doubles so does the quantum yield from the assay. HCC1937 is a BRCA1 defective Breast Cancer cell line; MCF7 is an ER+ breast cancer cell line; MDA-MB231 and MDA-MB468 are ER-aggressive breast cancer cell lines. SK-N-AS, SK-N-BE2c, SK-N-DZ lines are neuroblastoma cell lines and LAN5 cells are a cell line derived from a neuroblastoma bone metastasis; MCF10A is a non-malignant but immortalized breast cell line. PBMC—peripheral blood monocytes (proliferating normal cells), and MCF10A is an immortalized but non-malignant breast epithelial cell line. Referring to FIGS. 8 and 9, the X-axis is the Log of AOH39 concentration in uM, where 0 corresponds to 1 uM and 1 corresponds to 10 uM. The Y-Axis indicates cell proliferation as a percentage of identical cell cultures grown in PBS/DMSO without added AOH39.

MCF10A = test: Cell viability, CellTiter Glo Assay, MCF10A; format: cell-based; conditions: Homo sapiens, MCF-10A, non-malignant but immortalized breast cell line, read-out: Effect of AOH39 on Cell Viability IC50
Procedure: as §1

MCF7 = test: Cell viability, CellTiter Glo Assay, MCF7; format: cell-based; conditions: Homo sapiens; MCF7, ER+ breast cancer cell line; read-out: Effect of AOH39 on Cell Viability IC50
Procedure: as §1

HCC1937 = test: Cell viability, CellTiter Glo Assay, HCC1937; format: cell-based; conditions: Homo sapiens; HCC1937, BRCA1 defective breast cancer cell line; read-out: Effect of AOH39 on Cell Viability IC50
Procedure: as §1

MDA-MB468 = test: Cell viability, CellTiter Glo Assay, MDA-MB468; format: cell-based; conditions: Homo sapiens, MDA-MB-468; MDA-MB468, ER- breast cancer cell line; read-out: Effect of AOH39 on Cell Viability IC50
Procedure: as §1

MDA-MB231 = test: Cell viability, CellTiter Glo Assay, MDA-MB231; format: cell-based; conditions: Homo sapiens, MDA-MB-231; MDA-MB231, ER- breast cancer cell line; read-out: Effect of AOH39 on Cell Viability IC50
Procedure: as §1

SK-N-AS = test: Cell viability, CellTiter Glo Assay, SK-N-AS; format: cell-based; conditions: Homo sapiens, neuroblastoma cell line, read-out: Effect of AOH39 on Cell Viability IC50
Procedure: as §1

SK-N-BE2c = test: Cell viability, CellTiter Glo Assay, SK-N-BE2c; format: cell-based; conditions: SK-N-BE(2)-C, neuroblastoma cell line, read-out: Effect of AOH39 on Cell Viability IC50
Procedure: as §1

SK-N-DZ = test: Cell viability, CellTiter Glo Assay, SK-N-DZ; format: cell-based; conditions: Homo sapiens, neuroblastoma cell line, read-out: Effect of AOH39 on Cell Viability IC50
Procedure: as §1

LAN5 = test: Cell viability, CellTiter Glo Assay, LAN5; format: cell-based; conditions: LA-N-5; LAN5, neuroblastoma bone metastasis cell line; read-out: Effect of AOH39 on Cell Viability IC50
Procedure: as §1

[1] = tested on: MCF7 Cell SV40 origin-dependent In Vitro DNA replication; test: T-antigen and SV40 origin dependent in vitro DNA replication reaction; format: biochemical; conditions: for Inhibition of in vitro DNA replication: relative to reaction containing Tris-HCl/DMSO
Procedure: In vitro DNA replication activity was determined using the standard T-antigen and SV40 origin dependent in vitro DNA replication reaction (L. Malkas et al., Biochemistry 29: 6362-6374 (1990) and percent inhibition was determined relative to a reaction containing Tris-HCl/DMSO in place of AOH39.) The reaction was started with the addition of T-antigen to the reaction mixture. Results are shown in FIG. 3, with AOH39 inhibiting replication by roughly 50% at concentrations of 5 μM and by more than 75% at 10 μM.
(§2) There is a precise correlation between the ability of AOH39 to inhibit the SV40 origin dependent in vitro DNA replication process and MCF7 cell viability, FIG. 4. Cell viability was determined colorimetrically using the MTT assay following a 72 hour incubation with 10 μM of AOH39. In vitro DNA replication activity was determined using the standard T-antigen and SV40 origin dependent in vitro DNA replication reaction (L. Malkas et al., Biochemistry, 29, 6362-6374 (1990)), and percent inhibition was determined relative to a reaction containing Tris-HCl/DMSO in place of AOH39 for the activity assay, and PBS/DMSO for the viability assay.

MCF7 cells = test: MCF7 cell viability, MTT assay; format: cell-based; conditions: 72 hour incubation with 10 μM
Procedure: as §2

IC50 (MCF7): 3100 nM
IC50 (HCC1937): 2200 nM
IC50 (MDA-MB468): 3300 nM
IC50 (MDA-MB231): 1000 nM
IC50 (SK-N-AS): 2200 nM
IC50 (SK-N-BE2c): 2900 nM
IC50 (SK-N-DZ): 1700 nM
Structure (SMILES): O=C(CNC(=O)c1cccc2ccccc12)Nc1ccccc1Cc1ccccc1 [AOH39]
IC50 (PBMC): 13200 nM
IC50 (MCF10A): 6200 nM
IC50 (LAN5): 1200 nM
Inhibition of in vitro DNA replication ([1]; 5 μM): roughly 50%
Inhibition of in vitro DNA replication ([1]; 10 μM): more than 75%
Inhibition of DNA replication (in words) ([1]; relative to control replication reaction containing PBS/DMSO in place of compound): inhibited DNA replication significantly
MCF7 cell viability (in words) (MCF7 cells): significant decrease in MCF7 cell viability
